“Also recorded” adds a separate entry of the source.

The test system of experiment [1] is GS8 cells. The experiment in a line: Acute cytotoxicity assay (cell viability, Cell titer blue). It counts as cell-based. The settings on record: DMSO controls. (In general: Resazurin is reduced to fluorescent resorufin, in cell work by metabolically active cells.)
For experiment [2], the system named is LNZ308 cells. The description is as above. Type of experiment: cell-based. To be noted: Homo sapiens, DMSO control. As to the method:
(§1) LN229 and LNZ308 were seeded as 5,000 cells per well in 96 well plates one day before treatment initiation. All treatments were carried out in serum-free DMEM along with their respective controls, and cell viability measured at 72 h post initial treatment (hpt) using Cell titer blue solution (Promega, Madison, USA) as per manufacturer's instructions. The measured values were converted to percentage cell viability by normalizing each treatment to its respective control within the individual regimen.
(§2) The monotherapies with γ-irradiation and MeV effected dose responses as expected (Fig. 9) and in accordance with cell viability observed previously (Fig. 4). The CT-VT-RT initiated synergistic effect was retained when substituting TMZ by lomustine/CCNU. […] The cell viability and dose dependence in the non-synergistic regimens were similar to those previously observed in triple regimens using TMZ (Fig. 5).

In experiment [3] the test system is LN229 cells. Described as above. It counts as cell-based. To be noted: Homo sapiens, LN-229, DMSO control. As to the method: as §1, §2
Experiment [4] relates to IFN-β. The experiment in a line: ELISA of supernatants of treated LNZ308 cells. It counts as cell-based, human. The settings on record: LNZ308, CT-VT-RT with or without molecular inhibitors (BX795 10 µM, fludarabine 100 µM). As to the method:
LNZ308 cells were seeded as 3×10^6 cells per dish and treated with different regimens as described above, supernatants were harvested after 96 hpt and concentrated using Amicon Ultra-15 Ultracel-3K centrifugal filters (Merck Millipore, Billerica, USA) with subsequent determination of total protein concentration using Bradford protein assay (Bio-Rad Laboratories). The respective chemokine/cytokine concentrations were determined enzymatically per microgram of total protein using the respective DuoSet ELISA kits according to manufacturer's instructions (R&D Systems, Minneapolis, USA).
For orientation: ELISA stands for enzyme-linked immunosorbent assay.

The test system of experiment [5] is phospho-STAT1 (Y701). Kind of experiment: Immunoblot analysis after CT-VT-RT with signalling inhibitors. Type of experiment: cell-based, human. The settings on record: inhibitor added to CT-VT-RT (BX795 10 µM, fludarabine 100 µM). As to the method:
Cells of interest were lysed in lysis buffer containing 25 mM Tris hydrochloric acid (Tris-HCI), 120 mM sodium chloride (NaCI), 5 mM ethylenediaminetetraacetic acid (EDTA), 0.5% NP-40 and phosphatase inhibitor cocktails (Sigma Aldrich). Proteins were separated on 4-12% polyacrylamide gels (Thermo Fisher Scientific) followed by transfer to PVDF membranes (Thermo Fisher Scientific). […] Antibody against TRAIL ([…]), LC3A ([…]) and β-tubulin (9F3) were purchased from Cell Signalling (Cell Signalling, Dan-vers, USA) and used at a dilution of 1:1,000. Anti-rabbit and Anti-mouse horseradish peroxidase coupled secondary antibodies were purchased from Abcam and used at a concentration of 1:5,000. TBK1/IKKε inhibitor, BX795 was purchased from Invivogen (Invivogen, San Diego, USA) and used at a concentration of 10 μM.

Experiment [6] deals with STAT1. Kind of experiment: qPCR mRNA expression in treated LNZ308 cells. It counts as cell-based, human. To be noted: inhibitor applied after CT-VT-RT treatment. How it is done:
RNA extractions were performed using the RNeasy mini kit (Qiagen) and reversely transcribed to cDNA using High-Capacity RNA-to-cDNA kit (Thermo Fisher Scientific) according to manufacturer's instructions. For each qPCR reaction, 20 ng of cDNA were amplified with custom designed primers (Supplementary Table 1) and qPCR Mastermix Plus for SYBR Green (Eurogentec, Liege, Belgium) using the 7500 Fast Real time PCR system (Thermo Fisher Scientific). Relative gene expression was determined using the ΔΔ-CT method versus the housekeeping gene ARF1.

For experiment [7], the target named is T1, interferon regulatory factor 1 (IRF1) (UniProt P10914 1-325).
T1 sequence (looked up): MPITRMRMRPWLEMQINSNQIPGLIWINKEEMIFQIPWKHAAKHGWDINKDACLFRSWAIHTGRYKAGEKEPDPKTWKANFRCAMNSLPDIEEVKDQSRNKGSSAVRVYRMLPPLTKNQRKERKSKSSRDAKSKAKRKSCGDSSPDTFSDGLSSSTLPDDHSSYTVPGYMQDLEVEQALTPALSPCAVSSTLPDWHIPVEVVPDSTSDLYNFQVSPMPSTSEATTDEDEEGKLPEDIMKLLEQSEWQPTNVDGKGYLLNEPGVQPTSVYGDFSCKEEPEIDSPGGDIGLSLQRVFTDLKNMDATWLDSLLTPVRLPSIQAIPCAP
Kind of experiment: proximity ligation assay in LNZ308 cells treated with CT-VT-RT plus fludarabine.

Turning to `Cn1nnc2c(C(N)=O)ncn2c1=O` [TMZ, temozolomide], in experiment [1], the EC50 (usually the midpoint of the concentration-response curve) is 250 µM.
As for `O=NN(CCCl)C(=O)NC1CCCCC1` [CCNU, lomustine], the EC50 in experiment [2] came out at 45 µM; in experiment [3], 16 µM.
For `O=C(NCCCNc1nc(Nc2cccc(NC(=O)N3CCCC3)c2)ncc1I)c1cccs1` [BX795], in experiment [4], the IFN-β protein result was “abolished; also recorded: complete loss of IFN-β production”. Besides, in experiment [5], the STAT1 protein phosphorylation entry is given as “downregulated; also recorded: complete loss of phospho-STAT1 (Y701)”. The STAT1 transcription result in experiment [6] is “downregulated”.

B1: basic leucine zipper transcriptional factor ATF2-like protein (BATF2) (other, UniProt Q8N1L9 1-274, looked up)
chain: MHLCGGNGLLTQTDPKEQQRQLKKQKNRAAAQRSRQKHTDKADALHQQHESLEKDNLALRKEIQSLQAELAWWSRTLHVHERLCPMDCASCSAPGLLGCWDQAEGLLGPGPQGQHGCREQLELFQTPGSCYPAQPLSPGPQPHDSPSLLQCPLPSLSLGPAVVAEPPVQLSPSPLLFASHTGSSLQGSSSKLSALQPSLTAQTAPPQPLELEHPTRGKLGSSPDNPSSALGLARLQSREHKPALSAATWQGLVVDPSPHPLLAFPLLSSAQVHF
In the case of B1, the binding result in experiment [7] was “binds”.

Source of the values: EP3539562A1, “IMMUNOTHERAPEUTIC PEPTIDES” (Eberhard Karls Universität Tübingen Medizinische Fakultät, priority 2018, dated 2019).
